The record followed here is ChEMBL document CHEMBL1201862, “PubChem BioAssay data set” (2004).

The structures appear in SMILES notation.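 In this assay, cells in 96-well plates receive the compound at five concentrations for 48 hours. Endpoints are linearly interpolated between the surrounding concentrations. The concentration for 50% growth inhibition is given as GI50.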 Calls of active or inactive are those of the source. Cut-off read from the data, not from the text of the source: active = GI50 up to about 1.1 µM and inactive = higher.

Common to all, as to assay: growth of human tumour cells (NCI), 48 h
Assay [1] has as its system SN12C.
For assay [2], the system named is NCI/ADR-RES.
Assay [3] relates to K562.
Assay [4] concerns HCT-15.
The subject of assay [5] is HOP-18.
In assay [6] the test system is SK-MEL-28.
The subject of assay [7] is BT-549.
In assay [8] the test system is UO-31.
The subject of assay [9] is NCI-H23.
Assay [10] has as its system T47D.
Assay [11] deals with SF-539.
In assay [12] the test system is CCRF-CEM.
For assay [13], the system named is HCT-116.
Assay [14] deals with MDA-MB-435.
Assay [15] concerns ACHN.
Assay [16] relates to OVCAR-8.
Assay [17] concerns HOP-62.
The test system of assay [18] is SF-295.
In assay [19] the test system is LXFL 529.
For assay [20], the system named is HL-60.

On to `Oc1cc(-n2cccn2)c(O)cc1-n1cccn1`, for which the GI50 in assay [1] was 19.3 µM (inactive); in [2], 29.4 µM (inactive); in [3], 11.2 µM (inactive); in [4], 28.8 µM; in assay [5] it was 67.9 µM (inactive); in assay [6], 40.8 µM (inactive). Besides, the GI50 is 18.7 µM (inactive) in [7]; 23.8 µM (inactive) in assay [8]; 43.7 µM (inactive) in [9]; 22.3 µM (inactive) in [10]; 62.1 µM (inactive) in assay [11]; 7.11 µM (inactive) in assay [12]. In addition, the GI50 is 26.2 µM (inactive) in [13]; 17.5 µM (inactive) in assay [14]; 22.4 µM (inactive) in assay [15]; 26.2 µM (inactive) in assay [16]; > 63.1 µM (inactive) in assay [17]; 37.8 µM (inactive) in assay [18]. For the same compound, the GI50 in [19] is 19.4 µM (inactive); in assay [20], 6.43 µM (inactive).
With `COc1ccc2[nH]c3c4c(ccc3c2c1)C(=O)C=CC4=O`, the GI50 in assay [1] is 11 µM (inactive); in [3], 1.53 µM (inactive); in [4], 4.42 µM; in assay [5] it was 10.8 µM (inactive); in [6] it was 8.2 µM (inactive); in assay [7], 27.8 µM (inactive). The GI50 in [8] was 14.8 µM (inactive); in assay [9] it was 12.7 µM (inactive); in [10] it was 2.64 µM (inactive); in assay [11], 15.7 µM (inactive); in assay [12], 0.324 µM (active); in [13] it was 3.62 µM (inactive). For the same compound, the GI50 was 25.9 µM (inactive) in [14]; 4.76 µM (inactive) in [15]; 5.22 µM (inactive) in [16]; 51.2 µM (inactive) in [17]; 24.7 µM (inactive) in assay [18]; 5.02 µM (inactive) in assay [19]. Moreover, the GI50 in assay [20] is 0.439 µM (active).
As for `O=C(Nc1ccc(Cl)cc1Cl)c1c/c(=N\O)c2ccc(O)cc2o1`, the GI50 in assay [1] is > 100 µM (inactive); in assay [3], > 100 µM (inactive); in [4], more than 100 µM; in assay [5], > 100 µM (inactive); in assay [6], > 100 µM (inactive); in [8], > 100 µM (inactive). The GI50 in [9], in [11], in [12], in [13], in assay [15] and in assay [16] was > 100 µM (inactive) throughout. Moreover, the GI50 in assay [17], in assay [18], in assay [19] and in [20] was > 100 µM (inactive) each time.
Consider `CC(=O)NC1=C(NC(C)(C)C)C(=O)c2ccccc2C1=O`, for which the GI50 is 18.2 µM (inactive) in [1]; 7.19 µM (inactive) in assay [3]; 17.3 µM in assay [4]; 14.8 µM (inactive) in assay [5]; 25.4 µM (inactive) in assay [6]; 18.2 µM (inactive) in assay [8]. The GI50 was 18.7 µM (inactive) in [9]; 15.8 µM (inactive) in assay [11]; 2.35 µM (inactive) in assay [12]; 28.7 µM (inactive) in [13]; 86.1 µM (inactive) in [15]; 20.3 µM (inactive) in assay [16]. Besides, the GI50 is 49.4 µM (inactive) in assay [17], 42.7 µM (inactive) in assay [18], 15.2 µM (inactive) in assay [19] and 2.23 µM (inactive) in [20].
Regarding `NC1=NS(=O)(=O)Nc2nc(-c3ccc([N+](=O)[O-])o3)[nH]c21`, the GI50 in assay [1] is 17.7 µM (inactive); in assay [3], 5.38 µM (inactive); in assay [4], 19.9 µM; in assay [5], 16.3 µM (inactive); in [6], 16 µM (inactive); in [8] it was 16.2 µM (inactive). Further, the GI50 in assay [9] is 19.6 µM (inactive); in [11] it was 17.3 µM (inactive); in assay [12], 3.6 µM (inactive); in [13] it was 4.58 µM (inactive); in assay [15], 16.9 µM (inactive); in [16], 25.1 µM (inactive). The GI50 was 18.5 µM (inactive) in assay [17], 16.3 µM (inactive) in [18], 12.7 µM (inactive) in assay [19] and 1.9 µM (inactive) in assay [20].
In the case of `COc1cc(OC)c([C@@H]2OC(=O)C3C2C(=O)O[C@H]3c2cc(OC)c(OC)cc2OC)cc1OC` (stereo not given in full), the GI50 was > 100 µM (inactive) in assay [1]; > 100 µM (inactive) in [3]; more than 100 µM in [4]; > 100 µM (inactive) in [5]; > 100 µM (inactive) in assay [6]; > 100 µM (inactive) in assay [8]. Also, the GI50 in assay [9], in [11], in [12], in [13], in [15] and in assay [16] was > 100 µM (inactive) throughout. The GI50 in assay [17] was > 100 µM (inactive); in assay [18] it was > 100 µM (inactive); in [19], > 100 µM (inactive); in [20] it was 88.9 µM (inactive).
Regarding `CN(C)CC1(C)CC/C(=C\c2ccc(Cl)cc2)C1=O` (stereo not given), the GI50 was 51.3 µM (inactive) in assay [1]; 40.6 µM (inactive) in assay [3]; 34.4 µM in [4]; 46 µM (inactive) in assay [5]; > 100 µM (inactive) in [6]; 45.8 µM (inactive) in assay [8]. The GI50 in [9] is 57.4 µM (inactive); in assay [11], 46.5 µM (inactive); in assay [12] it was 25.8 µM (inactive); in [13] it was 34.3 µM (inactive); in assay [15] it was 44.9 µM (inactive); in [16], 40.1 µM (inactive). The GI50 is > 100 µM (inactive) in [17], 67.1 µM (inactive) in assay [18], 21.1 µM (inactive) in assay [19] and 19.7 µM (inactive) in [20].
As to `Cc1c(N)nc(C(CC(N)=O)NCC(N)C(N)=O)nc1C(=O)NC(C(=O)NC(C)C(O)C(C)C(=O)NC(C(=O)NCCc1nc(-c2nc(C(=O)NCCCNCCCCN)cs2)cs1)C(C)O)C(OC1OC(CO)C(O)C(O)C1OC1OC(CO)C(O)C(OC(N)=O)C1O)c1c[nH]cn1` (stereo not given), the GI50 in [1] was 3.56 µM (inactive); in assay [3], > 10 µM (inactive); in assay [4] it was more than 5.64 µM; in [5], > 10 µM (inactive); in assay [6], > 10 µM (inactive); in [8] it was 2.36 µM (inactive). Moreover, the GI50 was 1.79 µM (inactive) in assay [9]; 0.0655 µM (active) in assay [11]; > 10 µM (inactive) in assay [12]; 1.29 µM (inactive) in [13]; 0.00622 µM (active) in [15]; > 10 µM (inactive) in assay [16]. Further, the GI50 in assay [17] was 0.321 µM (active); in [18], 0.0731 µM (active); in assay [19], > 10 µM (inactive); in [20] it was > 10 µM (inactive).
